# Measurements reported in PubChem BioAssay AID493130 (Broad Institute, 2011).
# Records with an inconclusive call do not appear. Active and inactive are the calls of the source.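 The calls were made as follows: active = signal-lowering compounds whose fitted half-maximal concentration is at most ten times their highest tested dose; inconclusive = flat fit between -30 and -70%, or poor fit; inactive = flat within 30%, signal rising, or potency beyond limit.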
# Target: POS-1 (Caenorhabditis elegans) binding to mex-3 RNA
# Experiment: inhibitors of POS-1/mex-3 RNA binding, dose response, counter-screen for MEX-5 RNA-binding inhibitor project, biochemical, fluorescence polarization, cherry-picked samples, set 2 (AID 493130);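 also: POS-1 as maltose binding protein fusion made in E. coli with FITC RNA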
# Conditions: POS-1/mex-3 RNA fluorescence polarization, 1 h; for activity change, negative = inhibition: at 10 µM (top of the series)
SMILES,"activity change, negative = inhibition",AC50
COc1ccc(CC(=O)NNc2ncnc3c2cnn3C)cc1OC,inactive,
CCN(CC(=O)Nc1ccc(NC(C)=O)cc1)Cc1c(O)ccc2cc(Br)ccc12,inactive,
O=C1NC2=C(C(=O)CCC2)C(c2ccccc2[N+](=O)[O-])N1 (stereo not given),,> 10 µM (inactive)
CC1CN2C(c3ccc(Cl)cc3)=CSC2=N1 (stereo not given),inactive,
O=c1[nH]c(=S)n(-c2ccc(Cl)cc2)c(O)c1C=Nc1ccc(N2CCOCC2)cc1,inactive,
COc1ccc(CCNc2c3ccccc3nc3ccccc23)cc1OC,inactive,
COc1cccc(NC(=S)NNC(=O)C(C)n2nc(C)c([N+](=O)[O-])c2C)c1 (stereo not given),inactive,
CCOC(=O)N1CCN(c2nc3ccccc3nc2C(C#N)C(=O)NCCc2ccccc2)CC1 (stereo not given),inactive,
Cc1ccc(C(=O)NNc2ncnc3c2cnn3C)cc1,inactive,
N#CCCn1c2ccccc2c2nc3ccccc3nc21,inactive,
Fc1ccc(N=c2ssnc2Cl)c(F)c1,inactive,
N#CC(C(=O)NC1CC1)c1nc2ccccc2nc1N1CCN(C/C=C/c2ccccc2)CC1 (stereo not given),inactive,
Cc1cccc(/C=C(\C#N)C(=O)Nc2ccccn2)c1,inactive,
CN1CCN(c2ccc([N+](=O)[O-])c3no[n+]([O-])c23)CC1,,3.3 µM
CN1CCc2nc3sc(C(=O)NC(C)(C)C)c(N)c3cc2C1,inactive,
Cc1ccc(C(=O)N/N=C\c2cc(Br)c(Br)o2)cn1,inactive,
Cc1cccn2c(=O)c3cc(C(=O)NC(C)C)c(=N)n(Cc4ccncc4)c3nc12,inactive,
CCOc1ccc(/C=N/n2c(C)nc3ccccc3c2=O)cc1,inactive,
Cc1nn(C(C)C(=O)NNC(=S)Nc2ccc(Cl)cc2)c(C)c1[N+](=O)[O-] (stereo not given),inactive,
O=C(N/N=C/c1c(O)ccc2ccccc12)c1ccc[n+](CCO)c1,inactive,
O=C(CN1C(=O)/C(=C/c2cccc(Br)c2)SC1=S)NC1=NCCS1,inactive,
COC(=O)C1=C(C)OC(N)=C(C#N)C1c1cc(OC)c(OCC(N)=O)cc1Cl (stereo not given),inactive,
CCCCNc1c(N)n(CCCC)c(=O)[nH]c1=O,inactive,

SMILES,"activity change, negative = inhibition",AC50
O=C1SC(SCc2ccccc2Cl)=N/C1=C\c1ccc(C(=O)O)cc1,inactive,
Nc1c(C(=O)Nc2cccc(Cl)c2Cl)sc2nc(-c3cccnc3)ccc12,inactive,
CCc1nnc(NC(=O)CCN2C(=O)/C(=C/c3cc(OC)c(OC)c(OC)c3)SC2=S)s1,inactive,
Cc1nnc(SCc2nc3sc4c(c3c(=O)[nH]2)CCCC4)n(N)c1=O,inactive,
CC1CN2C(c3ccc([N+](=O)[O-])cc3)=CSC2=N1 (stereo not given),inactive,
Oc1cc2c(c(Cl)c1O)CCNCC2c1ccccc1 (stereo not given),inactive,
O=[N+]([O-])c1ccc(C2=CSC3=NCCN23)cc1,inactive,
O=C(NC1CCSc2ccccc21)c1cccc(Br)c1 (stereo not given),inactive,
CNC(=O)/C(C#N)=C/c1ccc(-c2ccc(Cl)cc2)o1,inactive,
COc1cc(/C=C2/C(=O)NN(c3ccc(Cl)c(Cl)c3)C2=O)cc([N+](=O)[O-])c1O,inactive,
CS(=O)(=O)c1nsc2nc(=O)c(/C=C3\C=Nc4ccccc43)c(N)n12,inactive,
O=C(O)c1ccccc1N=Nc1c(O)[nH]c2ccc([N+](=O)[O-])cc12,inactive,
Cc1ccc(S(=O)(=O)c2cc3c(=O)n4ccccc4nc3n(Cc3ccco3)c2=N)cc1C,inactive,
CC(=O)CCS(=O)(=O)c1ccc(Oc2ccc(S(=O)(=O)CCC(C)=O)cc2)cc1,inactive,
CCOC(=O)C(=NC(C)C)NNc1cc(Cl)ccc1Cl,inactive,
CC(=O)Nc1ccc(/C=N\NC(=O)CNS(=O)(=O)c2ccc([N+](=O)[O-])cc2)cc1,inactive,
COc1cc(/C=C/c2nc(-c3ccccc3O)n[nH]2)cc(OC)c1OC,inactive,
O=C(CCN1C(=O)/C(=C\c2ccco2)SC1=S)Nc1ccc(C(=O)O)c(O)c1,inactive,
CCN=c1scc(-c2ccco2)n1/N=C/c1ccc(O)cc1,inactive,
COC(=O)COc1ccc2c(c1)O/C(=C\c1cccc([N+](=O)[O-])c1)C2=O,inactive,
COC(=O)c1cc2c(-c3ccccc3)cc3ccccn3c-2c1C(=O)OC,inactive,
N=C(N)N=Nc1c(O)[nH]c2ccc(Br)cc12,inactive,
CCc1ccc(S(=O)(=O)Nc2ccc(O)c3c(=O)cc(-c4ccccc4Cl)oc23)cc1,inactive,

SMILES,"activity change, negative = inhibition",AC50
COC(=O)c1cccc(-c2ccc(C(c3c(C)[nH][nH]c3=O)c3c(C)[nH][nH]c3=O)o2)c1,inactive,
O=C1c2ccccc2C(=O)N1/N=C/c1ccc(O)c(O)c1O,,2.31 µM
CN1CC=C2C(C#N)=C(N)C(C#N)(C#N)C(Cc3ccccc3)C2C1 (stereo not given),,6.58 µM
Cc1[nH][nH]c(=O)c1C(c1ccc(O)c([N+](=O)[O-])c1)c1c(C)[nH][nH]c1=O,,7.84 µM
O=[N+]([O-])c1ccc(O)c(C=Nc2ccc3c(c2)OCCO3)c1,inactive,
Nc1ccc(S(=O)(=O)NNC(=O)C(=O)NNc2ccccn2)cc1,inactive,
CCCCC1=CC2=C(c3ccco3)C(=O)C(C)(OC(=O)c3ccc(OC)cc3)C(=O)C2=CN1C(CO)CO (stereo not given),inactive,
O=C(CCCN1C(=O)/C(=C/c2ccccc2Cl)SC1=S)NNC(=O)c1ccc(Cl)cc1,inactive,
CCN(CC)CCOc1ccc2c(c1)C(=NNC(=O)c1ccccn1)c1cc(OCCN(CC)CC)ccc1-2,inactive,
COc1ccc2cc3c(N)c(C(=O)NCc4ccco4)sc3nc2c1,inactive,
CC(=O)NN1C(=O)/C(=C/c2ccc(Br)o2)SC1=S,inactive,
Cc1cc(C)c2c3c(sc2n1)C(c1ccccc1)C(C#N)=C(N)O3 (stereo not given),inactive,
Oc1c(C=Nc2ccccc2)sc(=S)n1Cc1ccccc1,inactive,
CCOC(=O)C1=C(C)N=c2s/c(=C\c3cccn3C)c(=O)n2C1c1cccc(OC)c1OC (stereo not given),inactive,
Cc1ccc(O)c(C(=O)c2cc(C#N)c(=O)n(-c3nccs3)c2)c1,,4.09 µM
Cc1c(N=NC2=C(O)CCCC2=O)c(=O)n(-c2ccccc2)n1C,inactive,
CCOC(=O)c1c(-c2ccc(C)o2)csc1NC(=S)NC(=O)c1cccs1,inactive,
COc1ccc(NC(=O)c2cccs2)cn1,inactive,
O=C(N/N=C/c1cccnc1)c1ccc(O)cc1,inactive,
O=Nc1[nH]c(=O)c(/C=C(\O)c2ccccc2)nc1NO,inactive,
CCCCOc1ccc2c(c1)/C(=C(\C(Cl)=C(Cl)Cl)[N+](=O)[O-])N2,,8.54 µM
Cc1ccc(/C=C2/NC(=O)N(Cc3ccccc3)C2=O)s1,inactive,
COc1ccc(N(CCC#N)C(=O)/C(C#N)=C/c2cccs2)cc1,inactive,

SMILES,"activity change, negative = inhibition",AC50
CCOC(=O)NC(=O)COC(=O)c1ccc(Sc2ncn[nH]2)c([N+](=O)[O-])c1,inactive,
CC1CC(=O)c2c(cc3c(-c4c(O)cc(O)c5c(O)c6c(cc45)OC(C)CC6=O)c(O)cc(O)c3c2O)O1 (stereo not given),,8.29 µM
COC/C=C/C1=CC2=CC(=O)C(C)(O)C(=O)C2=CO1 (stereo not given),inactive,
CCOC(=O)Cc1csc(NC(=O)c2sc3nc4ccc(C)cc4cc3c2N)n1,inactive,
O=S(=O)(Nc1ccc(O)c(NS(=O)(=O)c2ccccc2)c1)c1ccccc1,inactive,
CCN1C(=O)c2cccc3c(NC(=O)C4CCCCC4)ccc1c23,inactive,
Cc1ccc(O)c(-c2cc(C(=O)Nc3ccc(S(=O)(=O)Nc4nc(C)cc(C)n4)cc3)[nH]n2)c1,inactive,
COc1ccc(NC(=O)c2cccc(-c3ccc(O)cc3)c2)cn1,,3.93 µM
COc1ccc(CC(=O)NNC(=O)c2cnccn2)cc1,inactive,
Cc1cccc(NC(=O)c2sc3nc4c(c(-c5ccco5)c3c2N)CCC4)c1,inactive,
CCCCN(C(=O)c1ccc([N+](=O)[O-])o1)c1c(N)n(CCCC)c(=O)[nH]c1=O,inactive,
NC(=O)C(=O)N/N=C/c1c2ccccc2cc2ccccc12,inactive,
COc1cc(OC)c2ccc(=O)oc2c1C(CC(=O)N1CCCC1)c1ccc(N(C)C)cc1 (stereo not given),inactive,
C=CCn1c(Cc2nc3ccc(Cl)cc3[nH]2)n[nH]c1=S,inactive,
O=C(NNC(=O)c1cccs1)c1csc(N2CCOCC2)n1,inactive,
CCOC(=O)CC1=C(C(=O)OCC)C(c2ccc(OC)cc2OC)C(C#N)=C(N)O1 (stereo not given),inactive,
C#CCOCCOCCOCCNc1nc(N2CCN(C(=O)[C@H]([C@@H](C)O)n3cc(CCCCN)nn3)CC2)nc(N2CCN(C(=O)[C@H](C)n3cc(CCCN=C(N)N)nn3)CC2)n1,inactive,
CN1CCCc2cc(C=O)ccc21,inactive,
CCc1ccc(N2C(=O)NC(=O)/C(=C\c3cccn3CCOc3ccc(C(C)C)cc3)C2=O)cc1,inactive,
Cc1cc(=O)n2[nH]c(N)c(N=Nc3ccccc3F)c2n1,inactive,
CN1C(=O)C(=Cc2sc(=O)n(-c3ccccc3)c2N(C)C)C(=O)N(C)C1=O,inactive,
